Assay results taken from patent US20250382250A1, “STILBENE DERIVATIVE AS AHR AGONIST AND USE THEREOF” (NANJING GRITPHARMACO., LTD., priority 2022, published 2025).
Marks after values point to notes of the source that are not given here.

What was measured:
AhR = molecular target: T1, AhR (Homo sapiens, UniProt P35869); test: AhR agonism luciferase reporter gene assay in transfected HepG2 cells; type: cell-based; conditions: 16 h, ratio of treatment group to blank
T1 construct: expressed in transfected cells; host or cells: HepG2
T1 sequence (P35869 11-848): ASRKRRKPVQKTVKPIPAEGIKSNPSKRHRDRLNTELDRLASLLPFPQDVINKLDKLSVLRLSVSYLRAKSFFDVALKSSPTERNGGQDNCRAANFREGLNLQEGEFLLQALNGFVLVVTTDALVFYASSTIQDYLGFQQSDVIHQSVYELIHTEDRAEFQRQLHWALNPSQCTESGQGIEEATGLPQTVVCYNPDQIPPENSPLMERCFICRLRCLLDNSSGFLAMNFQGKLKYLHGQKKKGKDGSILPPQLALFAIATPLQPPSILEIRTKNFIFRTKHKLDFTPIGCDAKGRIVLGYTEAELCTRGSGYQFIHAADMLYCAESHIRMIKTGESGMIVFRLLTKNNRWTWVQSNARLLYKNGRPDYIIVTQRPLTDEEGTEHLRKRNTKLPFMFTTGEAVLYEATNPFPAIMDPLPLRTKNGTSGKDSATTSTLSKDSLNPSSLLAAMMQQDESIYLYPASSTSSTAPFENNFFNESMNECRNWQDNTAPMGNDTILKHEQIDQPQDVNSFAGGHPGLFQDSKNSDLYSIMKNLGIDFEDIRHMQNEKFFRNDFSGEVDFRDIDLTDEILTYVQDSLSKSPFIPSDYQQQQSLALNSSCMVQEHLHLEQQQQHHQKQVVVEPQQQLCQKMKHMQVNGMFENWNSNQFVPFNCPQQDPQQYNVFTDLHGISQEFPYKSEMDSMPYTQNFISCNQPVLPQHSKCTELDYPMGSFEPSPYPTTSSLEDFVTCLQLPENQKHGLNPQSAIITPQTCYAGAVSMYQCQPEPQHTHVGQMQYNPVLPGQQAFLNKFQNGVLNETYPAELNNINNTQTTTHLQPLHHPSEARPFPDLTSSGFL
Protocol: When the cell confluence reached 80%, the culture medium was replaced with a fresh one, and the transfection working solution was added for transfection overnight. The formula of the working solution is as follows: 1 mL of Opti-MEM+7.5 μg of pCMV-AHR+7.5 μg of pTK-3×DRE-Luc+30 μL of lipo6000. • (2) Cell plating: The transfected cells were digested, prepared into a cell suspension at a concentration of 3×10^5 cells/mL, and then plated on a 96-well plate at 100 µL/well for adherent culture overnight. • (3) Formulation
The prepared drug-containing culture media and a blank culture medium were added to the 96-well plate described above at 100 μL/well.

TNFa = test: Regulatory effect on cytokine secretion in PHA-stimulated PBMCs: TNFa; type: cell-based; conditions: for TNFa: PBMCs, 15 μg/mL PHA, 24 h (PHA group 3649.21)
Protocol: (§1) • (1) Cells: […]; • (2) Cell plating and treatment: After the PBMCs were taken out from the liquid nitrogen tank and thawed, 80 μL of culture medium was added to a 96-well plate, and the cells were added at 200,000 cells/well. The culture media containing 2 μM or 0.2 μM compound 2 #, compound 6 #, or reference 1 # were added to the 96-well plate at 80 μL, at a final drug concentration of 1 μM or 0.1 μM per well. The plate was let stand for 1 h for pretreatment. After the pretreatment, the drug-containing medium was discarded, and 1 μM or 0.1 μM solution containing 15 μg/mL PHA (phytohemaggluyinin) was added at 80 μL/well. After 24 h of stimulation, the content of cytokines in the culture medium was detected. • Blank control group: The cells were treated with a normal culture medium with no drugs; • PHA group: A culture medium containing 15 μg/mL PHA but no compounds of the present disclosure was added at 80 μL/well.

IL4 = test: Regulatory effect on cytokine secretion in PHA-stimulated PBMCs: IL4; type: cell-based; conditions: for IL4: PBMCs, 15 μg/mL PHA, 24 h (PHA group 9.42)
Protocol: as §1

atopic dermatitis = test: DNFB-induced atopic dermatitis mouse model (AD Score); type: in vivo, BALB/C mice; set-up: scale not given here; conditions: DNFB mice
Protocol: 56 clean-grade BALB/C mice aged 6-8 weeks were subjected to 5 days of adaptive feeding and then randomized into 7 groups of 8 mice each: • A. Blank control group • B. Modeling+solvent group • C. Modeling+blank matrix group • D. Modeling+positive drug mometasone furoate group • E. Modeling+1 wt % of benvitimod group • F. […] The animal experiments were conducted in accordance with the Experimental Animal Feeding, Management and Use Guidelines of China Pharmaceutical University and in compliance with animal study ethics and regulations. As shown in the above procedures, the solvent control or DNFB was given in the morning for modeling; from day 5, the test compound ointment was administered once every afternoon at 50 mg/dose evenly on the skin surface. The specific administration method is as shown above; Specific procedures: […] Severity of atopic dermatitis was scored using the AD Score criteria The severity of the appearance of dermatitis was evaluated based on 4 indicators: A. erythema/bleeding; B. dryness; C. effusion/crusting; D. edema.

[1] = Drug permeation rate test, in vitro diffusion through semipermeable membrane; type: in vitro ADME; conditions: ointments: 2# 1.2 wt %, 6# 1.2 wt %, benvitimod 1.0 wt %, 32° C.
Protocol: (§2) Test compounds: compound 2 #ointment, 1.2 wt %; compound 6 #ointment, 1.2 wt %; benvitimod ointment, 1.0 wt %;
[drawing 90] • (1) Preparation of semipermeable membrane: The semipermeable membrane, which had been prepared in advance, was taken out from the refrigerator; • (2) Preparation of receiving liquid: 100 mL of polyethylene glycol 400 solution was brought to a final volume of 250 mL with normal saline. The mixture was mixed well and stored at 4° C. Before each permeation in the receiving compartment, the system was preheated to 32° C.; • (3) In vitro diffusion test: A drug transdermal diffusion apparatus was used to fix the processed semipermeable membrane between the supply and receiving compartments. A constant temperature water bath circulation at 32° C. was maintained. The system was equilibrated for 30 min. Upon each replacement of the receiving liquid, the air at the lower layer was exhausted. About 0.5 g of the ointment was evenly smeared in the supply compartment. The system was stirred with a magnetic stirring at a rotation speed of 600 r/min. At 0.5, 1, 2, 4, 6, and 24 h, 1 mL of sample liquid was taken out from the receiving compartment, and simultaneously, an equal amount of fresh receiving liquid at the same temperature was added;
The sampling time points were 0.5, 1, 2, 4, 6, and 24 h, and 1 mL of sample was directly transferred into a liquid phase vial. Simultaneously, an equal amount of fresh receiving liquid at the same temperature was added. The liquid phase detection was conducted to calculate the drug permeation rate.

[2] = Ointment diffusion test, ex vivo rabbit skin; type: in vitro ADME; conditions: ointments: 2# 1.2 wt %, 6# 1.2 wt %, benvitimod 1.0 wt %, 32° C.
Protocol: as §2
• (1) Preparation of ex vivo rabbit skin • (2) Preparation of receiving liquid: 100 mL of polyethylene glycol 400 solution was brought to a final volume of 250 mL with normal saline. The mixture was mixed well and stored at 4° C. Before each permeation in the receiving compartment, the system was preheated to 32° C. • (3) In vitro transdermal test: A drug transdermal diffusion apparatus was used to fix the processed rabbit skin between the supply and receiving compartments, with the stratum corneum facing the supply compartment. A constant temperature water bath circulation at 32° C. was maintained. The system was equilibrated for 30 min. Upon each replacement of the receiving liquid, the air at the lower layer was exhausted, and the liquid droplets on the skin surface were removed with paper. 0.5 g of the ointment was evenly smeared in the supply compartment. The system was stirred with a magnetic stirring at a rotation speed of 600 r/min. At 0.5, 1, 2, 3, 4, 5, 7, 9, 12, and 24 h, 1 mL of sample liquid was taken out from the receiving compartment and transferred into a liquid phase vial, and simultaneously, an equal amount of fresh receiving liquid at the same temperature was added. The liquid phase detection was conducted to calculate the drug permeation rate.

SMILES: Oc1cc(/C=C/c2ccc(F)cc2)cc(O)c1C1CCCC1 [Compound 2, (E)-2-cyclopentyl-5-(4-fluorostyryl)-1,3-benzenediol]
- AhR receptor agonistic fold (AhR; drug concentration 0.1 μM): 6.1 ± 0.6 fold
- AhR receptor agonistic fold (AhR; drug concentration 1 μM): 37.9 ± 6.9 fold
- TNFa (TNFa; 0.1 μM): 1353.72 pg/mL
- inhibitory effect on TNFa relative to reference 1# (benvitimod) (TNFa; 1 μM): 2 folds
- TNFa (TNFa; 1 μM): 941.41 pg/mL
- IL4 (IL4; 0.1 μM): 5.19 pg/mL
- inhibitory effect on IL4 relative to reference 1# (benvitimod) (IL4; 1 μM): 2 folds
- IL4 (IL4; 1 μM): 4.30 pg/mL
- Back AD score (atopic dermatitis; day 0, before ointment treatment (from day 5)): 0.00 ± 0.00
- Back AD score (atopic dermatitis; day 4, before ointment treatment (from day 5)): 3.19 ± 0.75
- Back AD score (atopic dermatitis; day 6, ointment 50 mg once daily from day 5 (1.2 wt % 2#/6#, 1 wt % benvitimod)): 5.63 ± 1.96
- Back AD score (atopic dermatitis; day 8, ointment 50 mg once daily from day 5 (1.2 wt % 2#/6#, 1 wt % benvitimod)): 6.13 ± 1.96**^aab
- Back AD score (atopic dermatitis; day 10, ointment 50 mg once daily from day 5 (1.2 wt % 2#/6#, 1 wt % benvitimod)): 5.31 ± 1.87**^aab
- 24-hour drug permeation rate (rank order) [1]: benvitimod >2 #>6 #
- 24-hour drug permeation rate (rank order) [2]: benvitimod >2 #>6 #
